{
  "source": "patent US20200297722A1",
  "about": "“pH-Modulated Formulations for Pulmonary Delivery” (GRIFOLS, S.A., priority 2009, published 2020)",
  "key": {"[1]": {"test": "calculated gallium concentration and precipitation in lung fluid after one AERx strip", "set-up": "species or system human", "from_the_text": "Thus, one would expect that there would be a depot-like effect in the lung in terms of the release of gallium from the solid state over time. This would result in a delayed absorption profile of gallium into the bloodstream, with a reduced CMAX and delayed TMAX. This would also reduce or eliminate side effects resulting from high systemic concentrations."}, "[2]": {"details": "pH 7.4 and 25° C.; cited from earlier work"}, "[3]": {"test": "aqueous solubility of gallium as a function of pH", "type": "physicochemical", "from_the_text": "Gallium is a semi-metallic element in group 13 (IIIa) of the periodic table. Gallium is trivalent in aqueous solution (Ga^3+). The free hydrated ion Ga^3+hydrolyzes nearly completely at pH values close to neutral, readily forming highly insoluble amorphous Ga(OH)3. In addition to precipitating as hydroxides and oxyhydroxides , Ga will also form highly insoluble phosphates at pH values close to neutral. L R Bernstein (1998) provides a brief review of the solution chemistry of gallium. […] At low and high pH values, gallium has many orders of magnitude greater solubility. […] This difference in solubility can be exploited in an inhalation product by formulating gallium or its salts (e.g., gallium nitrate) at a very low or very high pH."}, "[4]": {"details": "cited from earlier work"}, "[5]": {"details": "in lung fluid at ~pH 7.4, assumed deposition"}},
  "data": [
    {"smiles": "[Ga]", "note": "[gallium]", "values": [
      {"measurement": "resulting gallium concentration in lung fluid", "setting": "[1]; assumed: 25 μL of pH 2 solution equilibrated to ~pH 7.4 in 20 mL lung fluid", "value": "~12.5", "unit": "µM"},
      {"measurement": "excess of concentration over equilibrium solubility at pH 7.4", "setting": "[1]; assumed: 25 μL of pH 2 solution in 20 mL lung fluid", "value": "~12.5", "unit": "fold"},
      {"measurement": "gallium likely to precipitate out of solution", "setting": "[1]; [5]", "value": 96, "unit": "%"},
      {"measurement": "gallium remaining soluble", "setting": "[1]; [5]", "value": 8, "unit": "%"},
      {"measurement": "total aqueous solubility of gallium", "setting": "[2]", "value": "~1", "unit": "µM"},
      {"measurement": "times greater solubility than at pH 7.4", "setting": "[3]; pH 2 versus pH 7.4", "value": "~10,000 times"},
      {"measurement": "times greater solubility than at pH 7.4", "setting": "[3]; pH 10 versus pH 7.4", "value": "~500", "unit": "times"}
    ]},
    {"smiles": "NC[C@H]1O[C@H](O[C@H]2[C@H](O)[C@@H](O[C@H]3O[C@H](CO)[C@@H](O)[C@H](N)[C@H]3O)[C@H](N)C[C@@H]2N)[C@H](N)C[C@@H]1O", "note": "[tobramycin]", "values": [
      {"measurement": "solubility in water", "setting": "[4]", "value": "very soluble in water"}
    ]}
  ]
}
